Laboratory results: the supplement of paper PMC11208160

Test: recombinant UMI read abundance after kanamycin selection (control-corrected) (log10(CPM+1)); higher = more efficient recombination; extreme values may be limits of the assay; sequences stand for … in AGTGCAGAGAAAATCGGCCAGTTTTCTCTGCCTGCAGTCCGCATGCCGTGGGACCCCTTGGGTTCTAACCTGTTGCCTAGATTTATGCAGCGGACTGCCTTTCTCCCAAAGTGATAAACCGG…AGGTTGGTTTCACT; site = the 11-nt donor
In short: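 The measure is log10(CPM+1) for recombinant UMIs. These were PCR-amplified across the donor–target junction and sequenced after Escherichia coli carrying a donor and donor-binding-loop pair library and a target plasmid with T7-inducible IS621 bridge recombinase was plated on IPTG (0.07 mM) plus kanamycin or unselected. CPM were averaged over two replicates and scaled by control-derived factors.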
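Further: IS621 bridge recombinase in Escherichia coli cells against a fixed T5 target plasmid.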

Row | Sequence | recombinant UMI read abundance (log10)
1 | TAGGAATCATGGACCGGTTTTCCCGGTAATCCGTATTTGCG (site TAGGCATCTCG) | 1.14
2 | TAGGAATCATGGACCGGTTTTCCCGGTAATCCGTATTTGCG (site TAGGGATCTCG) | 1.43
3 | TAGGAATCATGGACCGGTTTTCCCGGTAATCCGTATTTGCG (site TAGGTATCTCG) | 1.63
4 | TAGGAATCATGGACCGGTTTTCCCGGTAATCCGTATTTGCG (site TAGTAATCTCG) | 1.71
5 | TAGGAATCATGGACCGGTTTTCCCGGTAATCCGTATTTGCG (site TATGAATCTCG) | 1.63
6 | TAGGAATCATGGACCGGTTTTCCCGGTAATCCGTATTTGCG (site TCGGAATCTCG) | 1.51
7 | TAGGAATCATGGACCGGTTTTCCCGGTAATCCGTATTTGCG (site TGGGAATCTCG) | 1.02
8 | TAGGAATCATGGACCGGTTTTCCCGGTAATCCGTATTTGCG (site TTGGAATCTCG) | 1.47
9 | TAGGAATCATGGACCGGTTTTCCCGGTAATCCGTATTTGCT (site TAGGAATCTAG) | 2.58
10 | TAGGAATCATGGACCGGTTTTCCCGGTAATCCGTATTTGCT (site TAGGAATCTCG) | 1.1
11 | TAGGAATCATGGACCGGTTTTCCCGGTAATCCGTATTTGCT (site TAGGAATCTGG) | 2.28
12 | TAGGAATCATGGACCGGTTTTCCCGGTAATCCGTATTTGCT (site TAGGAATCTTG) | 1.5
13 | TAGGATGCATGGACCGGTTTTCCCGGTAATCCGTATTTGGC (site TAGGATGCTGC) | 3.08
14 | TAGGCAACATGGACCGGTTTTCCCGGTAATCCGTATTTGAA (site TAGGCAACTTT) | 0.0147
15 | TAGGGACCATGGACCGGTTTTCCCGGTAATCCGTATTTGGT (site TAGGGACCTAC) | 0.00346
16 | TAGGTAACATGGACCGGTTTTCCCGGTAATCCGTATTTGAC (site TAGGTAACTGT) | 2.17

Row | Sequence | recombinant UMI read abundance (log10)
17 | TAGGTGTCATGGACCGGTTTTCCCGGTAATCCGTATTTGCA (site TAGGTGTCTTG) | 3.29
18 | TAGGTTCCATGGACCGGTTTTCCCGGTAATCCGTATTTGCC (site TAGGTTCCTGG) | 1.32
19 | TAGTAAGCATGGACCGGTTTTCCCGGTAATCCGTATTTGTA (site TAGTAAGCTTA) | 2.8
20 | TAGTACCCATGGACCGGTTTTCCCGGTAATCCGTATTTGGT (site TAGTACCCTAC) | 0.271
21 | TAGTACTCATGGACCGGTTTTCCCGGTAATCCGTATTTGCA (site TAGTACTCTTG) | 2.61
22 | TAGTATACATGGACCGGTTTTCCCGGTAATCCGTATTTGAC (site TAGTATACTGT) | 2.58
23 | TAGTATACATGGACCGGTTTTCCCGGTAATCCGTATTTGCA (site TAGAATACTTG) | 1.23
24 | TAGTATACATGGACCGGTTTTCCCGGTAATCCGTATTTGCA (site TAGCATACTTG) | 1.11
25 | TAGTATACATGGACCGGTTTTCCCGGTAATCCGTATTTGCA (site TAGGATACTTG) | 0.222
26 | TAGTATACATGGACCGGTTTTCCCGGTAATCCGTATTTGCA (site TAGTATACTTG) | 2.25
27 | TAGTATCCATGGACCGGTTTTCCCGGTAATCCGTATTTGCA (site TAGTATCCTTG) | 0.736
28 | TAGTGATCATGGACCGGTTTTCCCGGTAATCCGTATTTGCA (site TAGTGATCTTG) | 3.02
29 | TAGTGGGCATGGACCGGTTTTCCCGGTAATCCGTATTTGTC (site TAGTGGGCTGA) | 2.31
30 | TAGTTGCCATGGACCGGTTTTCCCGGTAATCCGTATTTGCC (site TAGTTGCCTGG) | 0
31 | TAGTTGGCATGGACCGGTTTTCCCGGTAATCCGTATTTGTG (site TAATTGGCTCA) | 0.0238
32 | TAGTTGGCATGGACCGGTTTTCCCGGTAATCCGTATTTGTG (site TACTTGGCTCA) | 0.0102
